Assay results published in ChEMBL document CHEMBL3124747, “Formosusin A, a novel specific inhibitor of mammalian DNA polymerase β from the fungus Paecilomyces formosus” (Bioorg Med Chem, 2014).
pIC50: −log10 of the molar value.

Experiments:
T7 RNA polymerase = T7 RNA polymerase (Enterobacteria phage T7, UniProt P00573); test: Inhibition of T7 RNA polymerase assessed as inhibition of incorporation of dTTP into poly(dA)/oligo(dT)18 after 60 mins; set-up: species or system Escherichia phage T7
[1] = target: T1, DNA-directed DNA polymerase (Enterobacteria phage T4, UniProt P04415); test: Inhibition of T4 bacteriophage DNA polymerase assessed as inhibition of incorporation of dTTP into poly(dA)/oligo(dT)18 after 60 mins; set-up: species or system Tequatrovirus T4
T1 sequence (P04415 whole entry): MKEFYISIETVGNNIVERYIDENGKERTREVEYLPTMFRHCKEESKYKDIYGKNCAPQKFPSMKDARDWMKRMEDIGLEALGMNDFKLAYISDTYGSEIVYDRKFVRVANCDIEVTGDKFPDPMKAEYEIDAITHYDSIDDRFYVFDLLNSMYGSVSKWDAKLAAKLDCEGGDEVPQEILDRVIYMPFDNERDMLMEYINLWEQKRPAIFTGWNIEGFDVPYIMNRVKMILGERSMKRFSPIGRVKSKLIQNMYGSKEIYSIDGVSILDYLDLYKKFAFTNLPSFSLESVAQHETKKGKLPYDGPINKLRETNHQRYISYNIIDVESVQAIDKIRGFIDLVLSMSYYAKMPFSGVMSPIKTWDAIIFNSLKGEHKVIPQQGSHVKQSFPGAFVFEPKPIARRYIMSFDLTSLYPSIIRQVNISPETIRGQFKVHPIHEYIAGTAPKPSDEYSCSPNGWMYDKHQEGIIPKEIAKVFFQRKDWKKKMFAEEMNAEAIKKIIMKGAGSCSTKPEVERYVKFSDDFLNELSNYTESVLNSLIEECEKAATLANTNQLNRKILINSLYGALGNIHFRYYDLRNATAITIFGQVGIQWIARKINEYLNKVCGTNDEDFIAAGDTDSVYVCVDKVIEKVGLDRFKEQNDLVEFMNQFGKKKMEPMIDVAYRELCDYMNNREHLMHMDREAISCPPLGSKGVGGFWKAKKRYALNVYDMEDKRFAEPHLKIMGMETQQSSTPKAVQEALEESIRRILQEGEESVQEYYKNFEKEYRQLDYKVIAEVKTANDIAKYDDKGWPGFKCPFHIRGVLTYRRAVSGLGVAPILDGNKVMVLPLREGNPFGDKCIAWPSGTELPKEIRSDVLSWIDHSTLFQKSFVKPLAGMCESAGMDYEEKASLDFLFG

[2] = Inhibition of Thermus aquaticus DNA polymerase assessed as inhibition of incorporation of dTTP into poly(dA)/oligo(dT)18 after 60 mins
DNA polymerase eta = target: T2, DNA polymerase eta (Homo sapiens, UniProt Q9Y253); test: Inhibition of C-terminal His-6-tagged human DNA polymerase eta expressed in Escherichia coli assessed as inhibition of incorporation of dTTP into poly(dA)/oligo(dT)18 after 60 mins
T2 sequence (Q9Y253 whole entry): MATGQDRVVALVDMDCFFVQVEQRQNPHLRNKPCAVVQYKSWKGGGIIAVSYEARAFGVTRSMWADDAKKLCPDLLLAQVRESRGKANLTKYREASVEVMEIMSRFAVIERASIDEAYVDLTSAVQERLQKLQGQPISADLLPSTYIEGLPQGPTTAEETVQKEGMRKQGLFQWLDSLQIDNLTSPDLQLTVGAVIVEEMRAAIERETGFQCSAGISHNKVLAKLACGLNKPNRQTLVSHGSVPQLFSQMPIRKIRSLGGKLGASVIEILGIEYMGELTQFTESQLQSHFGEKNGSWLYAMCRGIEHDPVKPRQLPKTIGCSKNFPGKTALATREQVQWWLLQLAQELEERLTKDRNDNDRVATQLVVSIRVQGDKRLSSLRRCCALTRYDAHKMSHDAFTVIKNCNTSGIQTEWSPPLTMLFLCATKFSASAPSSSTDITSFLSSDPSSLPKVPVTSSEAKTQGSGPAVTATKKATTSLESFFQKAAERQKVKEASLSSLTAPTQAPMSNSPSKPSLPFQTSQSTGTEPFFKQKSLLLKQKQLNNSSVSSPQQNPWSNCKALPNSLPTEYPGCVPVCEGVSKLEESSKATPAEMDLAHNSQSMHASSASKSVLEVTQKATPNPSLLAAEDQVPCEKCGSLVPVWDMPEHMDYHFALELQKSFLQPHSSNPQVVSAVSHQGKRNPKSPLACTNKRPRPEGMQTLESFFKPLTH

[3] = Inhibition of DNA polymerase epsilon isolated from human MOLT4 cells assessed as inhibition of incorporation of dTTP into poly(dA)/oligo(dT)18 after 60 mins; type: cell-free; conditions: molt-4
[4] = target: T3, DNA polymerase delta catalytic subunit (Homo sapiens, UniProt P28340); test: Inhibition of DNA polymerase delta isolated from human MOLT4 cells assessed as inhibition of incorporation of dTTP into poly(dA)/oligo(dT)18 after 60 mins; type: cell-free, MOLT-4
T3 sequence (P28340 whole entry): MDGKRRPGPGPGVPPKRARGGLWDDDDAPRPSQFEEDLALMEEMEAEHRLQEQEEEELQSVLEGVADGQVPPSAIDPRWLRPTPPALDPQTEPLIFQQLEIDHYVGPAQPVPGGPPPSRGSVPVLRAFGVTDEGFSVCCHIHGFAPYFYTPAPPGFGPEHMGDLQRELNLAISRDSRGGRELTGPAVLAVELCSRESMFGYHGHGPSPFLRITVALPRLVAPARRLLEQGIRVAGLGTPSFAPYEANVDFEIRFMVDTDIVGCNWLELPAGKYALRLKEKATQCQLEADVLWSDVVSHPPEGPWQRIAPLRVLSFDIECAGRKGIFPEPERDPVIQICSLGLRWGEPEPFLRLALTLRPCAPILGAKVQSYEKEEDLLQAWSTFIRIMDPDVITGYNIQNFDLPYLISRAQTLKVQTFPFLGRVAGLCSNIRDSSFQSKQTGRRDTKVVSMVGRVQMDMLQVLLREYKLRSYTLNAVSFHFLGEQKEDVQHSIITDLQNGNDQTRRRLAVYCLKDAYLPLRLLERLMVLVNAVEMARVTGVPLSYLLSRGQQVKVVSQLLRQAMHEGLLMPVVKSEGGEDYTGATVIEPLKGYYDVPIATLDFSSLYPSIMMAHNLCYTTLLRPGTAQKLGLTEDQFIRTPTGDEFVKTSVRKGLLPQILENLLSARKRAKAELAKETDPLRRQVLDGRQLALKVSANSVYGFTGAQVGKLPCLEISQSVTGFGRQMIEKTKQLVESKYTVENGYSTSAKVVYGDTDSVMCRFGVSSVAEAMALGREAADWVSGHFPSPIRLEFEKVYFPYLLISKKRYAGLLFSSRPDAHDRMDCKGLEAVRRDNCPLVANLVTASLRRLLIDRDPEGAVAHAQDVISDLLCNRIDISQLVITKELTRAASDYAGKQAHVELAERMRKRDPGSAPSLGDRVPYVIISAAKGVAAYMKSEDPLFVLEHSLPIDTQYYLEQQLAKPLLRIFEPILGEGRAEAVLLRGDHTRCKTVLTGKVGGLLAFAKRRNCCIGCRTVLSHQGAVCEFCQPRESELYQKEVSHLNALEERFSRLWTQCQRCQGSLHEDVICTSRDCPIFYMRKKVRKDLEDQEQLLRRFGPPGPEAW

Measured: pIC50

Chain of T7 RNA polymerase (P00573 whole entry): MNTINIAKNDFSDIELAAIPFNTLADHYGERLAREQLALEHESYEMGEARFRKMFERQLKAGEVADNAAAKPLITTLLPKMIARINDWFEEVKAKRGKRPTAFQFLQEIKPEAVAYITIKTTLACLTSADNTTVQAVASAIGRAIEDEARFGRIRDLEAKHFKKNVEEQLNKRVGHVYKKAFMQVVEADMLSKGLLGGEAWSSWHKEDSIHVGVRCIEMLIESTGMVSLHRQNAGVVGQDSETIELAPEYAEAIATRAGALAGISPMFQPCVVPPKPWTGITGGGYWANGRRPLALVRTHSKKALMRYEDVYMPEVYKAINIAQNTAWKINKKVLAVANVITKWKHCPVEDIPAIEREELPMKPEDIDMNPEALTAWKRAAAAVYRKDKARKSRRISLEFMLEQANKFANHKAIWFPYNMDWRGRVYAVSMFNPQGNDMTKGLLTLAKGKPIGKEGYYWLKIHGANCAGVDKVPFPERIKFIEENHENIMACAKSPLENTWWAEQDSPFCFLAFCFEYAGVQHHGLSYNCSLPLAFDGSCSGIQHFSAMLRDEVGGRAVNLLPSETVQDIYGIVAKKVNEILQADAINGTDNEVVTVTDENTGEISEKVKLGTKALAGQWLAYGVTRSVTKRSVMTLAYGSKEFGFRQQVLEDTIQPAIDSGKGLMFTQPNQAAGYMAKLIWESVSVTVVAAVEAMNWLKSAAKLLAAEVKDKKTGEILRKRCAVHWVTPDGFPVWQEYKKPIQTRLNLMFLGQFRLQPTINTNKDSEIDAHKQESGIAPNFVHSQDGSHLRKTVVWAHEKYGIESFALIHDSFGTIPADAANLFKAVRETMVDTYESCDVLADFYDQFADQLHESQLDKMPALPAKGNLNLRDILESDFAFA

CC(/C=C/CCC(=O)N1CCCC1=O)=C\C1CCCCO1 (centres undefined)
< 3.70: all assays above

CCCC[C@@H](O)/C=C(C)/C=C/C=C\C(=O)N1CCCC1=O
< 3.70: all assays above

CCCCC(=O)/C=C(C)/C=C/CCC(=O)N1CCCC1=O
< 3.70: all assays above

CCCC[C@@H](O)/C=C(C)/C=C/C=C/C(=O)N1CCCC1=O [PECILOCIN]
< 3.70: all assays above
